From ChEMBL document CHEMBL1201862, “PubChem BioAssay data set” (2004)
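Tested at 5 concentrations; 48 h exposure; 96-well plates; endpoints linearly interpolated, else capped at highest concentration. GI50 is the concentration that inhibits growth by half.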 Calls of active or inactive are those of the source. Rule as the data show it: active = GI50 up to about 1.1 µM and inactive = higher.

Columns and labels:
Experiment in all cases: inhibition of tumour cell growth, NCI panel, 48 h
[1] = system: SF-539
[2] = system: A498
[3] = system: ACHN
[4] = system: M19-MEL
[5] = system: SK-MEL-5
[6] = system: SW-620
[7] = system: HOP-92
[8] = system: XF498
[9] = system: KM12
[10] = system: SF-268
[11] = system: HOP-18
[12] = system: UACC-257
[13] = system: SF-295
[14] = system: TK-10
[15] = system: NCI-H23
[16] = system: SK-OV-3
[17] = system: Malme-3M
[18] = system: CCRF-CEM
[19] = system: SNB-75
[20] = system: SN12C
[21] = system: M14
[22] = system: EKVX
[23] = system: RXF 393
[24] = system: DMS-273
[25] = system: HT-29
[26] = system: OVCAR-8
[27] = system: NCI-H460
[28] = system: LOX IMVI
[29] = system: NCI-H226
[30] = system: OVCAR-5
[31] = system: SK-MEL-2
[32] = system: HL-60
[33] = system: OVCAR-3
[34] = system: LXFL 529
[35] = system: KM-20L2
[36] = system: UACC-62
[37] = system: MOLT-4
[38] = system: SK-MEL-28
[39] = system: NCI-H522
[40] = system: OVCAR-4
[41] = system: 786-0
[42] = system: SNB-19
[43] = system: A549
[44] = system: K562
[45] = system: RXF 631
[46] = system: DLD-1
[47] = system: UO-31
[48] = system: COLO 205
[49] = system: HCT-15
[50] = system: RPMI-8226
[51] = system: HCC 2998
[52] = system: U-251
[53] = system: CAKI-1
[54] = system: IGROV-1
[55] = system: DMS-114
[56] = system: SNB-78
[57] = system: HCT-116
[58] = system: HOP-62

Q: Which GI50 [1] does the source give for O=C(O)[C@@H](NS(=O)(=O)c1ccc([N+](=O)[O-])cc1)c1ccccc1 here?
A: > 100 µM (inactive)

Q: What about the GI50 [2] of the same compound?
A: > 100 µM (inactive)

Q: What about the GI50 [3] of the same compound?
A: > 100 µM (inactive)

Q: And the GI50 [4]?
A: > 100 µM (inactive)

Q: What about the GI50 [5] of the same compound?
A: > 100 µM (inactive)

Q: What about the GI50 [6] of the same compound?
A: > 100 µM (inactive)

Q: What about the GI50 [7] of the same compound?
A: > 100 µM (inactive)

Q: And the GI50 [8]?
A: > 100 µM (inactive)

Q: What about the GI50 [9] of the same compound?
A: > 100 µM (inactive)

Q: And the GI50 [10]?
A: > 100 µM (inactive)

Q: What about the GI50 [11] of the same compound?
A: > 100 µM (inactive)

Q: And the GI50 [12]?
A: > 100 µM (inactive)

Q: And the GI50 [13]?
A: > 100 µM (inactive)

Q: What about the GI50 [14] of the same compound?
A: > 100 µM (inactive)

Q: And the GI50 [15]?
A: > 100 µM (inactive)

Q: What about the GI50 [16] of the same compound?
A: > 100 µM (inactive)

Q: What about the GI50 [17] of the same compound?
A: > 100 µM (inactive)

Q: What about the GI50 [18] of the same compound?
A: > 100 µM (inactive)

Q: And the GI50 [19]?
A: > 100 µM (inactive)

Q: What about the GI50 [20] of the same compound?
A: > 100 µM (inactive)

Q: What about the GI50 [21] of the same compound?
A: > 100 µM (inactive)

Q: What about the GI50 [22] of the same compound?
A: > 100 µM (inactive)

Q: And the GI50 [23]?
A: > 100 µM (inactive)

Q: What about the GI50 [24] of the same compound?
A: > 100 µM (inactive)

Q: And the GI50 [25]?
A: > 100 µM (inactive)

Q: And the GI50 [26]?
A: > 100 µM (inactive)

Q: What about the GI50 [27] of the same compound?
A: > 100 µM (inactive)

Q: What about the GI50 [28] of the same compound?
A: > 100 µM (inactive)

Q: And the GI50 [29]?
A: > 100 µM (inactive)

Q: And the GI50 [30]?
A: > 100 µM (inactive)

Q: And the GI50 [31]?
A: > 100 µM (inactive)

Q: And the GI50 [32]?
A: > 100 µM (inactive)

Q: What about the GI50 [33] of the same compound?
A: > 100 µM (inactive)

Q: What about the GI50 [34] of the same compound?
A: > 100 µM (inactive)

Q: And the GI50 [35]?
A: > 100 µM (inactive)

Q: What about the GI50 [36] of the same compound?
A: > 100 µM (inactive)

Q: What about the GI50 [37] of the same compound?
A: > 100 µM (inactive)

Q: And the GI50 [38]?
A: > 100 µM (inactive)

Q: And the GI50 [39]?
A: 73.6 µM (inactive)

Q: And the GI50 [40]?
A: > 100 µM (inactive)

Q: What about the GI50 [41] of the same compound?
A: > 100 µM (inactive)

Q: What about the GI50 [42] of the same compound?
A: > 100 µM (inactive)

Q: And the GI50 [43]?
A: > 100 µM (inactive)

Q: What about the GI50 [44] of the same compound?
A: > 100 µM (inactive)

Q: What about the GI50 [45] of the same compound?
A: > 100 µM (inactive)

Q: And the GI50 [46]?
A: > 100 µM (inactive)

Q: And the GI50 [47]?
A: > 100 µM (inactive)

Q: And the GI50 [48]?
A: > 100 µM (inactive)

Q: What about the GI50 [49] of the same compound?
A: > 100 µM

Q: And the GI50 [50]?
A: > 100 µM (inactive)

Q: What about the GI50 [51] of the same compound?
A: > 100 µM (inactive)

Q: What about the GI50 [52] of the same compound?
A: > 100 µM (inactive)

Q: And the GI50 [53]?
A: > 100 µM (inactive)

Q: And the GI50 [54]?
A: > 100 µM (inactive)

Q: How did the GI50 [1] turn out when O=C(NC(=O)c1cn(CCN(CCO)C(=O)NCCCCCCNC(=O)N(CCO)CCn2cc(C(=O)NC(=O)OCc3ccccc3)c(=O)[nH]c2=O)c(=O)[nH]c1=O)OCc1ccccc1 was run?
A: > 100 µM (inactive)

Q: And the GI50 [3]?
A: > 100 µM (inactive)

Q: What about the GI50 [4] of the same compound?
A: > 100 µM (inactive)

Q: And the GI50 [5]?
A: > 100 µM (inactive)

Q: And the GI50 [6]?
A: > 100 µM (inactive)

Q: What about the GI50 [7] of the same compound?
A: > 100 µM (inactive)

Q: What about the GI50 [55] of the same compound?
A: > 100 µM (inactive)

Q: What about the GI50 [8] of the same compound?
A: > 100 µM (inactive)

Q: What about the GI50 [11] of the same compound?
A: > 100 µM (inactive)

Q: And the GI50 [56]?
A: > 100 µM (inactive)

Q: What about the GI50 [12] of the same compound?
A: > 100 µM (inactive)

Q: And the GI50 [13]?
A: > 100 µM (inactive)

Q: What about the GI50 [14] of the same compound?
A: > 100 µM (inactive)

Q: And the GI50 [15]?
A: > 100 µM (inactive)

Q: What about the GI50 [16] of the same compound?
A: > 100 µM (inactive)

Q: What about the GI50 [17] of the same compound?
A: > 100 µM (inactive)

Q: And the GI50 [18]?
A: > 100 µM (inactive)

Q: What about the GI50 [19] of the same compound?
A: > 100 µM (inactive)

Q: And the GI50 [20]?
A: > 100 µM (inactive)

Q: What about the GI50 [21] of the same compound?
A: > 100 µM (inactive)

Q: And the GI50 [22]?
A: > 100 µM (inactive)

Q: And the GI50 [23]?
A: > 100 µM (inactive)

Q: And the GI50 [24]?
A: > 100 µM (inactive)

Q: What about the GI50 [57] of the same compound?
A: > 100 µM (inactive)

Q: What about the GI50 [25] of the same compound?
A: > 100 µM (inactive)

Q: And the GI50 [26]?
A: > 100 µM (inactive)

Q: And the GI50 [27]?
A: > 100 µM (inactive)

Q: And the GI50 [28]?
A: > 100 µM (inactive)

Q: And the GI50 [30]?
A: > 100 µM (inactive)

Q: What about the GI50 [31] of the same compound?
A: > 100 µM (inactive)

Q: What about the GI50 [32] of the same compound?
A: > 100 µM (inactive)

Q: What about the GI50 [33] of the same compound?
A: > 100 µM (inactive)

Q: And the GI50 [35]?
A: > 100 µM (inactive)

Q: What about the GI50 [36] of the same compound?
A: > 100 µM (inactive)

Q: And the GI50 [37]?
A: > 100 µM (inactive)

Q: And the GI50 [38]?
A: > 100 µM (inactive)

Q: And the GI50 [40]?
A: > 100 µM (inactive)

Q: What about the GI50 [41] of the same compound?
A: > 100 µM (inactive)

Q: What about the GI50 [42] of the same compound?
A: > 100 µM (inactive)

Q: What about the GI50 [43] of the same compound?
A: > 100 µM (inactive)

Q: What about the GI50 [44] of the same compound?
A: > 100 µM (inactive)

Q: What about the GI50 [45] of the same compound?
A: > 100 µM (inactive)

Q: And the GI50 [46]?
A: > 100 µM (inactive)

Q: What about the GI50 [47] of the same compound?
A: > 100 µM (inactive)

Q: And the GI50 [48]?
A: > 100 µM (inactive)

Q: What about the GI50 [49] of the same compound?
A: > 100 µM

Q: And the GI50 [58]?
A: > 100 µM (inactive)

Q: And the GI50 [50]?
A: > 100 µM (inactive)

Q: And the GI50 [52]?
A: > 100 µM (inactive)

Q: What about the GI50 [53] of the same compound?
A: > 100 µM (inactive)

Q: What about the GI50 [54] of the same compound?
A: > 100 µM (inactive)
